In brackets after ≈: the same amount, converted by molar mass. Where two headings read alike, the source gives them in different places.
Key:
[1] = test system: Staphylococcus; experiment: Protection Tests in Mice; assay type: in vivo; conditions: Staphylococcus Gray, read-out: PD50
Description: (§1) In vivo Activity of the Mutamicin 1 and Sisomicin
(§2) Protection Tests in Mice

[2] = test system: Escherichia coli; experiment: Protection Tests in Mice; assay type: in vivo
Description: as §1, §2

[3] = test system: Pseudomonas aeruginosa; experiment: Protection Tests in Mice; assay type: in vivo
Description: as §1, §2

[4] = Acute Toxicity; conditions: mouse, in vivo
[5] = test system: Bacillus subtilis; experiment: Disc test, Bauer-Kirby technique with 10 Mcg. discs; assay type: cell-based; conditions: Bacillus subtilis, ATCC6633, strain ATCC 6633
Description: (§3) Disc Test Results (Replicate Tests) With The Mutamicins, Sisomicin and
(§4) Bauer-Kirby Technique^1 With 10 Mcg. Discs
(§5) ^1 Bauer, Kirby, Sherris and Turck, American Journal of Clinical

[6] = test system: Escherichia coli; experiment: as above; assay type: cell-based; conditions: Escherichia coli, read-out: Zone Size
Description: as §3, §4, §5

[7] = test system: Providence 164; experiment: as above; assay type: cell-based; conditions: strain 164
Description: as §3, §4, §5

[8] = test system: Staphylococcus aureus; experiment: as above; assay type: cell-based; conditions: Staphylococcus aureus
Description: as §3, §4, §5

[9] = test system: Pseudomonas aeruginosa; experiment: as above; assay type: cell-based; conditions: Pseudomonas aeruginosa
Description: as §3, §4, §5

[10] = test system: Klebsiella pneumoniae; experiment: as above; assay type: cell-based; conditions: Klebsiella pneumoniae
Description: as §3, §4, §5

[11] = test system: Streptococcus pyogenes; experiment: as above; assay type: cell-based; conditions: Streptococcus pyogenes
Description: as §3, §4, §5

[12] = test system: Bacillus subtilis; experiment: MIC in Mueller-Hinton Broth pH 7.2; assay type: cell-based; conditions: ATCC6633, strain ATCC 6633
Description: (§6) In vitro Activity of the Mutamicins and Sisomicin
(§7) MIC's in Mueller-Hinton Broth pH 7.2

[13] = test system: Aspergillus niger; experiment: MIC in Mueller-Hinton Broth pH 7.2; assay type: cell-based; conditions: Mueller-Hinton Broth pH 7.2, read-out: MIC
Description: as §6, §7

[14] = test system: Escherichia coli; experiment: MIC in Mueller-Hinton Broth pH 7.2; assay type: cell-based
Description: as §6, §7

[15] = test system: Candida albicans; experiment: MIC in Mueller-Hinton Broth pH 7.2; assay type: cell-based; conditions: Mueller-Hinton Broth pH 7.2, read-out: MIC
Description: as §6, §7

[16] = test system: Staphylococcus aureus; experiment: MIC in Mueller-Hinton Broth pH 7.2; assay type: cell-based
Description: as §6, §7

[17] = test system: Pseudomonas aeruginosa; experiment: MIC in Mueller-Hinton Broth pH 7.2; assay type: cell-based
Description: as §6, §7

[18] = test system: Proteus rettgeri; experiment: MIC in Mueller-Hinton Broth pH 7.2; assay type: cell-based; conditions: Providencia rettgeri; Mueller-Hinton Broth pH 7.2; read-out: MIC
Description: as §6, §7

[19] = test system: Klebsiella pneumoniae; experiment: MIC in Mueller-Hinton Broth pH 7.2; assay type: cell-based
Description: as §6, §7

[20] = test system: Serratia; experiment: MIC in Mueller-Hinton Broth pH 7.2; assay type: cell-based; conditions: strain 127, Mueller-Hinton Broth pH 7.2, read-out: MIC
Description: as §6, §7

[21] = test system: Salmonella typhimurium; experiment: MIC in Mueller-Hinton Broth pH 7.2; assay type: cell-based; conditions: Salmonella enterica, strain B
Description: as §6, §7

[22] = test system: Streptococcus pyogenes; experiment: MIC in Mueller-Hinton Broth pH 7.2; assay type: cell-based
Description: as §6, §7

[23] = test system: Providence; experiment: MIC in Mueller-Hinton Broth pH 7.2; assay type: cell-based; conditions: strain (Genta. R.) 164
Description: as §6, §7

[24] = test system: Trichophyton rubrum; experiment: MIC in Mueller-Hinton Broth pH 7.2; assay type: cell-based; conditions: Mueller-Hinton Broth pH 7.2, read-out: MIC
Description: as §6, §7

## CN[C@@H]1[C@@H](O)[C@@H](O[C@H]2[C@H](N)[C@@H](O)[C@H](N)[C@@H](O[C@H]3OC(CN)=CC[C@H]3N)[C@@H]2O)OC[C@]1(C)O [Mutamicin 1]
[1]
  ED50: 6 mg/kg
[2]; Escherichia coli 6922, read-out: PD50
  ED50: 2.5 mg/kg
[2]; Escherichia coli Sc., read-out: PD50
  ED50: 5 mg/kg
[3]; Pseudomonas aeruginosa 2552, read-out: PD50
  ED50: 15.3 mg/kg
[3]; Pseudomonas aeruginosa 2557, read-out: PD50
  ED50: 17.1 mg/kg
[3]; sc, Pseudomonas aeruginosa Sc., read-out: PD50
  ED50: 2.5 mg/kg
[4]; ip
  LD50: > 700 mg/kg
[4]; iv
  LD50: 110 mg/kg
[5]
  zone of inhibition at 10 µg/disc: 31 mm
[6]; ATCC10536, strain ATCC 10536, 10 Mcg. discs
  zone of inhibition at 10 µg/disc: 31 mm
[6]
  zone of inhibition at 10 µg/disc: 11 mm
[6]; strain 589, 10 Mcg. discs
  zone of inhibition at 10 µg/disc: 29 mm
[6]; strain JR90, 10 Mcg. discs
  zone of inhibition at 10 µg/disc: 0 mm
[6]; strain LA290/R55, 10 Mcg. discs
  zone of inhibition at 10 µg/disc: 29 mm
[6]; strain Swidinsky 4195, 10 Mcg. discs
  zone of inhibition at 10 µg/disc: 28 mm
[6]; strain W677/R55, 10 Mcg. discs
  zone of inhibition at 10 µg/disc: 30 mm
[7]
  zone of inhibition at 10 µg/disc: 15 mm
[8]; ATCC6538P, strain ATCC 6538P
  zone of inhibition at 10 µg/disc: 26 mm
[8]; strain 59N
  zone of inhibition at 10 µg/disc: 26 mm
[8]; strain Wood
  zone of inhibition at 10 µg/disc: 28 mm
[8]; strain Ziegler
  zone of inhibition at 10 µg/disc: 25 mm
[9]; strain Capetown 18
  zone of inhibition at 10 µg/disc: 19 mm
[9]; strain D-2
  zone of inhibition at 10 µg/disc: 21 mm
[9]; strain St. Michael 413
  zone of inhibition at 10 µg/disc: 27 mm
[9]; strain St. Michael 762
  zone of inhibition at 10 µg/disc: 24 mm
[9]; strain St. Michael 1262
  zone of inhibition at 10 µg/disc: 18 mm
[9]; strain St. Michael 1395
  zone of inhibition at 10 µg/disc: 29 mm
[9]; strain Stone 20
  zone of inhibition at 10 µg/disc: 31 mm
[9]; strain Stone 39
  zone of inhibition at 10 µg/disc: 29 mm
[9]; strain Stone 130
  zone of inhibition at 10 µg/disc: 14 mm
[9]; strain Stone 138
  zone of inhibition at 10 µg/disc: 15 mm
[10]; strain Ad 17
  zone of inhibition at 10 µg/disc: 24 mm
[10]; strain Ad 18
  zone of inhibition at 10 µg/disc: 26 mm
[10]; strain Georgetown 3020
  zone of inhibition at 10 µg/disc: 26 mm
[10]; strain Georgetown 3694
  zone of inhibition at 10 µg/disc: 26 mm
[11]; strain B-Cruz
  zone of inhibition at 10 µg/disc: 17 mm
[11]; strain C
  zone of inhibition at 10 µg/disc: 13 mm
[12]
  MIC: 0.03 µg/mL (≈ 0.0647 µM)
[13]
  MIC: > 10 µg/mL
[14]; ATCC10536, pH 7.2, strain ATCC 10536
  MIC: 0.3 µg/mL (≈ 0.647 µM)
[14]; pH 7.2, strain Baker 2
  MIC: 3 µg/mL (≈ 6.47 µM)
[14]; pH 7.2, strain Fl4-Bk
  MIC: 3 µg/mL (≈ 6.47 µM)
[14]; pH 7.2, strain Genta. adenyl LA290-R55
  MIC: 3 µg/mL (≈ 6.47 µM)
[14]; pH 7.2, strain Genta. adenyl W677/R55
  MIC: 0.8 µg/mL (≈ 1.73 µM)
[14]; pH 7.2, strain Kana. phosphor. 589
  MIC: 3 µg/mL (≈ 6.47 µM)
[14]; pH 7.2, strain Kana. phosphor. C-13
  MIC: 3 µg/mL (≈ 6.47 µM)
[14]; pH 7.2, strain Tobra. R 4195
  MIC: 3 µg/mL (≈ 6.47 µM)
[15]
  MIC: > 25 µg/mL
[16]; ATCC6538P, pH 7.2, strain ATCC 6538P
  MIC: 0.3 µg/mL (≈ 0.647 µM)
[16]; pH 7.2, strain 59N
  MIC: 0.3 µg/mL (≈ 0.647 µM)
[16]; pH 7.2, strain 1118
  MIC: 3 µg/mL (≈ 6.47 µM)
[16]; pH 7.2, strain Grey
  MIC: 3 µg/mL (≈ 6.47 µM)
[16]; pH 7.2, strain Wood
  MIC: 0.08 µg/mL (≈ 0.173 µM)
[16]; pH 7.2, strain Ziegler
  MIC: 0.08 µg/mL (≈ 0.173 µM)
[17]; pH 7.2
  MIC: > 25 µg/mL
[17]; pH 7.2, strain 762, Mueller-Hinton Broth pH 7.2, read-out: MIC
  MIC: 3 µg/mL (≈ 6.47 µM)
[17]; pH 7.2, strain 1262, Mueller-Hinton Broth pH 7.2, read-out: MIC
  MIC: 3 µg/mL (≈ 6.47 µM)
[17]; pH 7.2, strain 1395, Mueller-Hinton Broth pH 7.2, read-out: MIC
  MIC: 3 µg/mL (≈ 6.47 µM)
[17]; pH 7.2, strain D-2, Mueller-Hinton Broth pH 7.2, read-out: MIC
  MIC: 0.8 µg/mL (≈ 1.73 µM)
[17]; pH 7.2, strain Genta. acetyl Capetown 18, Mueller-Hinton Broth pH 7.2, read-out: MIC
  MIC: 7.5 µg/mL (≈ 16.2 µM)
[17]; pH 7.2, strain Genta. acetyl Stone 130, Mueller-Hinton Broth pH 7.2, read-out: MIC
  MIC: 17.5 µg/mL (≈ 37.8 µM)
[17]; pH 7.2, strain NRRL B3223, Mueller-Hinton Broth pH 7.2, read-out: MIC
  MIC: 0.3 µg/mL (≈ 0.647 µM)
[17]; pH 7.2, strain Stone 20, Mueller-Hinton Broth pH 7.2, read-out: MIC
  MIC: 3 µg/mL (≈ 6.47 µM)
[17]; pH 7.2, strain Stone 39, Mueller-Hinton Broth pH 7.2, read-out: MIC
  MIC: 3 µg/mL (≈ 6.47 µM)
[17]; pH 7.2, strain Stone 138, Mueller-Hinton Broth pH 7.2, read-out: MIC
  MIC: 17.5 µg/mL (≈ 37.8 µM)
[18]
  MIC: 3 µg/mL (≈ 6.47 µM)
[19]; pH 7.2, strain Ad 18
  MIC: 0.3 µg/mL (≈ 0.647 µM)
[19]; pH 7.2, strain Genta. adenyl 121
  MIC: 3 µg/mL (≈ 6.47 µM)
[19]; pH 7.2, strain Genta. adenyl 3020
  MIC: 0.3 µg/mL (≈ 0.647 µM)
[19]; pH 7.2, strain Genta. adenyl 3694
  MIC: 0.3 µg/mL (≈ 0.647 µM)
[19]; pH 7.2, strain Kana. phos. Ad 22
  MIC: 0.3 µg/mL (≈ 0.647 µM)
[20]
  MIC: 0.8 µg/mL (≈ 1.73 µM)
[21]
  MIC: 3 µg/mL (≈ 6.47 µM)
[22]; pH 7.2, strain 27
  MIC: 7.5 µg/mL (≈ 16.2 µM)
[22]; pH 7.2, strain Alvarez
  MIC: 7.5 µg/mL (≈ 16.2 µM)
[22]; pH 7.2, strain C
  MIC: 3 µg/mL (≈ 6.47 µM)
[22]; pH 7.2, strain Cruz
  MIC: 3 µg/mL (≈ 6.47 µM)
[22]; pH 7.2, strain Karipeds
  MIC: 3 µg/mL (≈ 6.47 µM)
[22]; pH 7.2, strain Labay
  MIC: 7.5 µg/mL (≈ 16.2 µM)
[23]
  MIC: > 25 µg/mL
[24]
  MIC: > 10 µg/mL
